These results are taken from the Deep4Chem optical property database.

This data set can be described thus: solvent given as SMILES.

Take `CCCCN1\C(=C/C=C/C=C/C2=[N+](CCCC)c3ccc4ccccc4c3C2(C)C)C(C)(C)c2c1ccc1ccccc21`: the emission maximum reads like this: (in C1CCOC1) 710 nm; (in CC#N) 698 nm; (in CC(C)=O) 701 nm; (in CCO) 704 nm; (in CN(C)C=O) 705 nm; (in CO) 701 nm. The emission maximum came out at 709 nm (in CS(C)=O) and 713 nm (in ClCCl).

Turning to `N#Cc1c(N2CCCCC2)cc(-c2cccs2)c2c1CCc1ccccc1-2`, under “in C1CCOC1”, the emission maximum is given as 474 nm.

With `CCCCCCCCCCCCCCCCOC(=O)c1ccc(N(c2ccccc2)c2ccccc2)cc1`, the emission maximum came to 380 nm (in C1CCCCC1); 428 nm (in C1CCOC1); 480 nm (in CC#N); 428 nm (in CCOC(C)=O); 450 nm (in ClCCCl); 412 nm (in c1ccccc1).

As to `COC(=O)c1cc(=O)n(C)c2cc(-c3ccc4c(c3)OCO4)sc12`, the emission maximum was found to be 482 nm (in CC#N) and 474 nm (in ClCCl).

For the molecule `O=C(c1ccc(-n2c3ccccc3c3ccccc32)cc1)c1ccc(-n2c3ccccc3c3ccccc32)cc1`, the emission maximum is, setting by setting: (in Cc1ccccc1) 438 nm; (in O=P(c1ccccc1)(c1ccccc1)c1ccccc1Oc1ccccc1P(=O)(c1ccccc1)c1ccccc1) 444 nm.

For `C/C(=C\c1ccc(C)cc1)c1nc2ccccc2s1`, the emission maximum runs as follows: (in C1CCCCC1) 390 nm; (in CO) 400 nm.

For the molecule `CCN(CC)c1ccc2cc(C#N)/c(=N\C(=O)c3ccc(F)cc3)oc2c1`, the emission maximum by setting is: (in CCO) 533 nm; (in ClCCl) 507 nm.

Consider `O=P1(c2ccccc2)C2=C(c3ccccc31)S(=O)(=O)c1ccccc12` (centres undefined), for which the emission maximum by setting is: (in C1CCCCC1) 453 nm; (in CC#N) 465 nm; (in CCO) 471 nm; (in ClCCl) 466 nm.

The molecule `CCN(CC)c1ccc(/N=N/c2nc3ccc([N+](=O)[O-])cc3s2)cc1` gave an emission maximum (in CC#N) of 607 nm and an emission maximum (in ClCCl) of 603 nm.

With `N#Cc1cc2sccc2c2c1ccc1ccccc12`, the emission maximum (in ClC(Cl)Cl) came to 382 nm.

As to `O=C1CCCc2c1[nH]c1cc3c(cc21)OCO3`, the emission maximum is listed as 403.84 nm (in C1CCOC1); 399.42 nm (in CC#N); 430.73 nm (in CCCCCCO); 437.63 nm (in CCO); 388.9 nm (in CCOC(C)=O); 403.54 nm (in CS(C)=O). In addition, the emission maximum is on record as 463.6 nm (in O) and 384.12 nm (in c1ccccc1).

`O=c1c2ccccc2sc2ccc(-n3c4ccccc4c4ccccc43)cc12`: the emission maximum worked out at 452.5 nm (in C1CCOC1); 436 nm (in CCCCCC); 447.5 nm (in Cc1ccccc1); 486.5 nm (in ClC(Cl)Cl); 483.5 nm (in ClCCl).

Consider `[NH3+]c1ccc2ccc([O-])cc2c1`, for which, under “in O”, the emission maximum is given as 425 nm.

On to `CCCCN1c2ccccc2Sc2cc(/C=C/c3nc4nc5ccccc5nc4s3)ccc21`, for which the emission maximum (in C1CCCCC1) is 558 nm; the emission maximum (in C1CCOC1) is reported as 670 nm; the emission maximum (in C1COCCO1) is on record as 640 nm; the emission maximum (in CC(C)=O) amounted to 739 nm; the emission maximum (in CCOC(C)=O) is on record as 670 nm; the emission maximum (in CCOCC) is reported as 635 nm. The same molecule returned an emission maximum (in Cc1ccccc1) of 621 nm and an emission maximum (in ClCCl) of 729 nm.

Turning to `CN1C(=O)/C(=C/c2ccncc2)N=C1/C=C/c1ccncc1`, the emission maximum is, setting by setting: (in C1COCCO1) 537 nm; (in CC#N) 541 nm; (in CCO) 545 nm; (in CCOC(C)=O) 535 nm; (in O) 542 nm.

Turning to `CCc1c(C)c2n(c1C)[B-](F)(F)[N+]1=C(C=C3C=Cc4ccccc43)C=CC1=C2C`, for the setting “in C1CCCCC1”, the emission maximum is on record as 596 nm.

In turn, `c1ccc2cc3c(cc2c1)-c1cccc2cc4ccccc4c-3c12` gave an emission maximum (in CCCCCCC) of 471 nm.
